Columns and labels:
CD95L mRNA [1] = assay: CD95L mRNA levels by RT-PCR in peripheral blood lymphocytes of HIV positive individuals; assay type: cell-based, human; details: 25 µM vitamin E 1 h, α-CD3 12 h (Fig. 5)
Experimental: Freshly isolated peripheral blood lymphocytes from HIV positive individuals were treated without or with vitamin E (VE) (25 µM) for 1 h and than stimulated with plate bound α-CD3 ([…]) for 12 h. CD95L mRNA levels were examined by RT-PCR (Eichhorst et al., 2000). Results from 5 individuals are shown.
It was investigated whether vitamin E could block CD95L expression in the peripheral blood lymphocytes of HIV positive individuals. Peripheral blood lymphocytes from such individuals were subjected to analysis of the CD95L mRNA expression levels in the absence or the presence of vitamin E. Different levels of the CD95L mRNA expression were found in lymphocytes from different HIV patients examined. […] Experimental details are given in the legend to Figure 5.

Egr binding site = assay: Luciferase reporter assay in J-27 T cells, three copies of the Egr consensus binding site (control); assay type: cell-based; details: J-27 cells, 50 µM vitamin E 1 h, PMA/ionomycin 8 h, control (Fig. 4)
From the text: (§1) J-27 T cells were transiently transfected with the luciferase reporter constructs containing the 0.86-kb CD95L promoter (Li-Weber et al., Eur. J. Immunol. 30 (2000), 661), or three copies of the NF-κB binding sites at -530 or -50 region (Li-Weber et al., Eur. J. Immunol. 30 (2000), 661) or the AP-1 motif at +90 region (Eichhorst et al., Mol. Cell. Biol. 20 (2000), 7826) of the CD95L promoter as described in Li-Weber et al., 2000. All promoter constructs are described in the cited references. A luciferase reporter construct containing three copies of the Egr consensus binding site was used as a control (Li-Weber et al., Eur. J. Immunol. 29 (1999), 3017). After overnight culture, the cells were divided and treated with vitamin E (VE) (50 µM) or the vitamin E solvent ethanol for 1 h and than further cultured in the absence (empty box) or presence (black box) of PMA (10 ng/ml) and ionomycin (0.5 µM). Luciferase activity was determined after 8 h of stimulation. Results represent the average of three to five independent transfection experiments.
(§2) To further investigate the effect of vitamin E on CD95L expression, the CD95L promoter (-860 to +100) or a minimal TATA promoter containing three copies of either the NF-B or the AP1 sites of the CD95L promoter were linked to the luciferase reporter gene and these constructs were transiently transfected into J-27 T cells. […]

NF-κB [2] = assay: Luciferase reporter assay in J-27 T cells, three copies of the CD95L promoter NF-κB binding sites; assay type: cell-based; details: J-27 cells, 50 µM vitamin E 1 h, PMA/ionomycin 8 h (Fig. 4)
From the text: as §1, §2

IFNγ mRNA = IFNγ mRNA by RT-PCR (control) in J-27 T cells stimulated by PMA and ionomycin; assay type: cell-based; details: J-27 cells, 50 µM vitamin E, PMA/ionomycin (Fig. 2E)
Experimental: (§3) J-27 T cells were cultured in the absence or presence of 50 µM vitamin E for 1 h and then stimulated by PMA (10 ng/ml) and ionomycin (0.5 µM) for the indicated times. CD95L mRNA expression was analyzed by RT-PCR. Primers for IFNγ and β-actin were used as controls.
(§4) To further investigate the molecular mechanism by which vitamin E attenuates AICD, several Jurkat T cell sub-clones susceptible to T-cell-receptor (TCR)-mediated-activation-induced apoptosis were selected. Data from one of the representative clones, clone 27 (J-27) is presented here. Activation of T cells through the T cell receptor can be mimicked by stimulation with the phorbol ester (PMA) and calcium ionophores (ionomycin). […] Therefore, it is unlikely that vitamin E directly interferes with signals downstream of the CD95 receptor. […] Thus, vitamin E may reduce CD95L expression at the transcriptional level and, therefore, attenuate AICD in J-27 cells. Experimental details are given in the legend to Figure 2.

J-27 cells = assay: α-APO-1 induced CD95-triggered apoptosis in J-27 cells; assay type: cell-based; details: 50 µM vitamin E 1 h, then α-APO-1 10 ng/ml with 10 ng/ml protein A (Fig. 2D)
Experimental: J-27 cells were cultured in the absence or presence of 50 µM vitamin E for 1 h and than, treated with α-APO-1 (10 ng/ml) antibody, DKFZ, Prof. Krammer, Trauth et al., Science 245 (1989), 301 in the presence of 10 ng/ml protein A for the indicated times.
as §4

CD95L mRNA [3] = assay: CD95L mRNA expression by RT-PCR in J-27 T cells stimulated by PMA and ionomycin; assay type: cell-based; details: J-27 cells
Experimental: as §3, §4

NF-κB [4] = assay: EMSA, nuclear extracts of J-27 T cells, binding to CD95L promoter NF-κB sites; assay type: cell-based; details: J-27 nuclear extracts, PMA/ionomycin 2 h, 50 µM vitamin E added 1 h before induction (Fig. 3A)
Experimental: (§5) (A)^32P-labeled oligonucleotides containing the CD95L NF-κB (at the promoter -530 and -50 region) (Li-Weber et al., Eur. J. Immunol. 30 (2000), 661) and AP-1 (at the promoter +90 region) (Eichhorst et al., Mol. Cell. Biol. 20 (2000), 7826) binding sequences were analyzed by EMSA as described (Li-Weber et al., (2000). The EMSA probes had the following sequences: • CD95L NF-κB at-530: 5'-[…]-3' • CD95L NF-κB at-50: 5'-[…]-3' • CD95L AP-1 at +90: 5'-[…]-3'
(§6) Nuclear extracts were prepared from J-27 T cells either non-induced (-) or induced (+) for 2 h by PMA (10 ng/ml) and ionomycin (0.5 µM) in the absence (-) or presence (+) of 50 µM vitamin E (VE) (added 1 h before induction). The inducible complex corresponding to NF-κB and AP-1 were indicated. A NF-Y binding oligonucleotide 5'[…]-3' was used for equal loading of nuclear extracts.
(§7) It was investigated whether vitamin E affects NF-KB and AP-1 binding to the CD95L promoter target sites. Nuclear extracts were prepared from J-27 T cells stimulated in the presence or absence of vitamin E. The NF-κB and AP-1 binding sites contained in the CD95L promoter were used as probes in an electrophoretic-mobility-shift-assay (EMSA). Stimulation of T cell with PMA and ionomycin induced binding of nuclear factors to the NF-κB and AP-1 sites of the CD95L promoter (Fig. 3A). […]

AP-1 = assay: EMSA, nuclear extracts of J-27 T cells, binding to CD95L promoter AP-1 site; assay type: cell-based; details: J-27 nuclear extracts, PMA/ionomycin 2 h, 50 µM vitamin E added 1 h before induction (Fig. 3A)
Experimental: as §5, §6, §7

## Cc1c(C)c2c(c(C)c1O)CC[C@@](C)(CCC[C@H](C)CCC[C@H](C)CCCC(C)C)O2 [vitamin E, α-tocopherol]
CD95L mRNA [1]
  expression of CD95L mRNA: completely blocked in most patients
Egr binding site
  luciferase expression driven by the Egr binding site: did not affect
NF-κB [2]
  luciferase expression driven by the NF-κB site of the CD95L promoter: greatly reduced
IFNγ mRNA
  levels of IFNγ mRNA: not significantly changed
J-27 cells
  α-APO-1 induced CD95-triggered apoptosis: did not prevent
CD95L mRNA [3]; 50 µM vitamin E 1 h, then PMA/ionomycin (Fig. 2E)
  CD95L mRNA expression: substantially reduced
CD95L mRNA [3]; 50 µM vitamin E, 3 h post stimulation (Fig. 2E)
  reduction of CD95L mRNA expression: readily seen
CD95L mRNA [3]; 50 µM vitamin E, 6 h post stimulation (Fig. 2E)
  CD95L mRNA expression: nearly completely blocked
NF-κB [4]
  binding of NF-κB to its binding sites of the CD95L promoter (-530 and -50 region): prevented binding
AP-1
  binding of AP-1 to its binding site of the CD95L promoter (+90 region): prevented binding

From EP1273297A1, “Vitamin E for the treatment of diseases in which the binding of the transcription factor NF-KB and/or AP-1 to promoter target sites has a beneficial effect (eg AIDS, cardiac infarction)” (Deutsches Krebsforschungszentrum Stiftung des öffentlichen …, priority 2001, dated 2003)
